For data set [1] the following is noted: wet granulation of the three drugs (Efavirenz, Tenofovir DF, Emtricitabine) together; US2007099902A1, EP1890681; cited from earlier work.
Data set [2] in a line: Stability testing at 33 weeks of wet granulated Truvada and Atripla combination formulations, by HPLC. The format is physicochemical. Here is the method: Stability Testing at 33 Weeks
The stability of the Truvada and Atripla combination formulations after wet granulation was checked by HPLC after 33 weeks storage under 75% Relative Humidity (RH) and 40° C.
Two types of formulations were prepared for each combination, one containing the Tenofovir Disoproxil Fumarate and the other one containing the Tenofovir Disoproxil Hemifumarate co-crystal. In both combinations, water content of 30 and 40% was prepared.

A short description of data set [3]: HPLC assay for degradation products after wet granulation. The format is physicochemical. To be noted: for Impurity peaks of Tenofovir disoproxil at 26.57 and 36.0 min (HPLC): wet granulation with Emtricitabine (Table 1). The procedure:
Analytical Methods: HPLC Assay for Degradation Product
Emtricitabine/Tenofovir disoproxil (Fumarate or Hemifumarate) granules are assayed by HPLC for Emtricitabine and Tenofovir disoproxil (Fumarate or Hemifumarate) using external references as described in US2007/0077295. The presence of degradation products are determined by area normalization. The identities of Emtricitabine and Tenofovir disoproxil (Fumarate or Hemifumarate) are confirmed by comparison of their retention times with those of the reference standards.
Approximately 6520 mg of Emtricitabine/Tenofovir disoproxil (Fumarate or Hemifumarate) granules was weighted into a 1 L volumetric flask. Added was 400 mL 25 mM phosphate buffer, pH 3 to the volumetric flask. Mixing was performed by stirring vigorously for about 75 minutes. 50:50 acetonitrile: methanol was added to the flask to approximately 2 cm below the 1 L mark. The solution was equilibrated to ambient temperature by mixing for 1 hour. The volume was diluted to 1 L with 50:50 acetonitrile: methanol and mixed well by stirring with a magnetic stirring bar. Using a 0.45 μm syringe filter with a syringe, approximately 10 mL for the next dilution was filtered. The first 2 mL of the filtrate was discarded. A class A pipette was used to transfer 5.0 mL of the filtrate into a 50 mL volumetric flask and dilute the to volume with sample solvent (40:30:30). […]
A composition comprising the ingredients and ratios as listed in table 1 are subjected to a standard wet granulation process with respectively 30% and 40% w/w water. The quality of the granulation was assessed visually. […]
A composition comprising the ingredients and ratios as listed in table 2 were subjected to a standard wet granulation process with respectively 30% and 40% w/w water. The quality of the granulation was assessed visually. […]
A composition comprising the ingredients and ratios as listed in Table 1 are subjected to a standard wet granulation process with respectively 30% and 40% w/w water. The quality of the granulation was assessed visually. […]

“Also recorded” adds a separate entry of the source. Counter-ions that a name gives are not always drawn. Like-named read-outs stand apart in the source and are kept apart here.

Take `CC(C)OC(=O)OCOP(=O)(CO[C@H](C)Cn1cnc2c(N)ncnc21)OCOC(=O)OC(C)C` [Tenofovir disoproxil fumarate]: the “Stability of Tenofovir DF” value in data set [1] is reported as “degraded rapidly; also recorded: unstable”. Besides, the “Degradation of Tenofovir disoproxil salt (HPLC chromatogram)” value in data set [2] is given as “to a large extent”.

Turning to Tenofovir disoproxil hemifumarate, the “Degradation of Tenofovir disoproxil salt (HPLC chromatogram)” value is “no degradation” in data set [2] (Atripla sample prepared with 30% water, 33 weeks, 75% RH, 40° C.); “less degradation” in data set [2] (Atripla sample prepared with 40% water, 33 weeks, 75% RH, 40° C.); “small degradation” in data set [2] (Truvada sample prepared with 30% water, 33 weeks, 75% RH, 40° C.); “small degradation” in data set [2] (Truvada sample prepared with 40% water, 33 weeks, 75% RH, 40° C.). Moreover, the “Chemical stability during wet granulation (overall conclusion)” value in data set [3] (Truvada (table 1) and Atripla (table 2) formulations, 30% and 40% w/w water) is “stable”. In addition, the “Impurity peaks of Tenofovir disoproxil at 26.57 and 36.0 min (HPLC)” value in data set [3] (30% w/w high pure water) and in data set [3] (40% w/w high pure water) was “not observed” each time.

These data come from US20110288045A1, “WET GRANULATION OF TENOFOVIR, EMTRICITABINE AND EFAVIRENZ” (ULTIMORPHIX TECHNOLOGIES B.V., priority 2008, published 2011).
